According to patent US20260015350A1, “AZAQUINAZOLINE PAN-KRAS INHIBITORS” (Mirati Therapeutics, Inc., priority 2022, published 2026):

Legend:
KRas^G12V = molecular target: T1, KRas^G12V (Homo sapiens, UniProt P01116, G12V); experiment: KRas binding assay (TR-FRET tracer displacement), KRas G12V
T1 construct: Biotinylated KRas (corresponding to amino acids 1-169, produced at Accelegan Inc.); biotin (biotinylated); purchased Accelegan Inc

[1] = test system: KRas-mediated phosphorylation of ERK in H727 cells; experiment: Inhibition of KRas-mediated phosphorylation of ERK (Cisbio HTRF pERK), H727 cells; type: cell-based; conditions: Homo sapiens, NCI-H727, H727 cells; HTRF pERK
Method in brief: (§1)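 H358, H727, H460 and AsPC-1 cells seeded at 6,000/well, treated 3 hrs with 10-dose 3-fold dilutions from 10 uM (0.8% DMSO); 0.2 uM trametinib as min control. Lysed 40 min at 4° C; lysate incubated 2 hrs at room temperature with d2/cryptate antibodies, HTRF read.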

KRas^G12D = molecular target: T2, KRas^G12D (Homo sapiens, UniProt P01116, G12D); experiment: KRas binding assay (TR-FRET tracer displacement), KRas G12D
T2 construct: Biotinylated KRas (corresponding to amino acids 1-169, produced at Accelegan Inc.); biotin (biotinylated); purchased Accelegan Inc

[2] = test system: KRas-mediated phosphorylation of ERK in AsPC-1 cells; experiment: Inhibition of KRas-mediated phosphorylation of ERK (Cisbio HTRF pERK), AsPC-1 cells; type: cell-based; conditions: Homo sapiens, ASPC1, AsPC-1 cells; HTRF pERK
Method in brief: as §1

KRas^G12R = molecular target: T3, KRas^G12R (Homo sapiens, UniProt P01116, G12R); experiment: KRas binding assay (TR-FRET tracer displacement), KRas G12R
T3 construct: Biotinylated KRas (corresponding to amino acids 1-169, produced at Accelegan Inc.); biotin (biotinylated); purchased Accelegan Inc

KRas^Q61H = molecular target: T4, KRas^Q61H (Homo sapiens, UniProt P01116, Q61H); experiment: KRas binding assay (TR-FRET tracer displacement), KRas Q61H; conditions: for IC50: TR-FRET tracer displacement, KRas Q61H
T4 construct: Biotinylated KRas (corresponding to amino acids 1-169, produced at Accelegan Inc.); biotin (biotinylated); purchased Accelegan Inc

[3] = test system: KRas-mediated phosphorylation of ERK in H460 cells; experiment: Inhibition of KRas-mediated phosphorylation of ERK (Cisbio HTRF pERK), H460 cells; type: cell-based; conditions: Homo sapiens; for inhibition at 0.1 µM: NCI-H460, 3 h, single point, 100 nM compound, 3 hrs; for IC50: NCI-H460, HTRF pERK
Method in brief: as §1

KRas^G12A = molecular target: T5, KRas^G12A (Homo sapiens, UniProt P01116, G12A); experiment: KRas binding assay (TR-FRET tracer displacement), KRas G12A; conditions: for IC50: TR-FRET tracer displacement, KRas G12A
T5 construct: Biotinylated KRas (corresponding to amino acids 1-169, produced at Accelegan Inc.); biotin (biotinylated); purchased Accelegan Inc

[4] = test system: KRas-mediated phosphorylation of ERK in MKN1 cells; experiment: Inhibition of KRas-mediated phosphorylation of ERK (Cisbio HTRF pERK), MKN1 cells; type: cell-based; conditions: Homo sapiens, MKN-1
Method in brief: (§2)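 HTRF pERK read-out; 6,000 cells/well, RPMI_10% FBS, overnight 37° C./5% CO2; 4 h covered incubation at RT before reading.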

[5] = test system: KRas-mediated phosphorylation of ERK in PSN1 cells; experiment: Inhibition of KRas-mediated phosphorylation of ERK (Cisbio HTRF pERK), PSN1 cells; type: cell-based; conditions: Homo sapiens
Method in brief: as §2

[6] = test system: KRas-mediated phosphorylation of ERK in H358 cells; experiment: Inhibition of KRas-mediated phosphorylation of ERK (Cisbio HTRF pERK), H358 cells; type: cell-based; conditions: Homo sapiens; for inhibition at 0.1 µM: NCI-H358, 3 h, single point, 100 nM compound, 3 hrs; for IC50: NCI-H358, HTRF pERK
Method in brief: as §1

[7] = test system: KRas-mediated phosphorylation of ERK in HCT116 cells; experiment: Inhibition of KRas-mediated phosphorylation of ERK (Cisbio HTRF pERK), HCT116 cells; type: cell-based; conditions: Homo sapiens; for inhibition at 0.1 µM: HCT-116, 3 h, single point, 100 nM compound, 3 hrs; for IC50: HCT-116, HTRF pERK
Method in brief: (§3)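 HTRF readout of phospho-ERK in cell lysates after 3 hrs of compound exposure. Dosing: 10 uM top, 3-fold steps, 10 doses, final DMSO 0.8%. Min control: 0.2 uM Trametinib. Lysis ran 40 mins at 4° C, and antibody detection 2 hrs at room temperature.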

KRas^G12C = molecular target: T6, KRas^G12C (Homo sapiens, UniProt P01116, G12C); experiment: KRas binding assay (TR-FRET tracer displacement), KRas G12C; conditions: for IC50: TR-FRET tracer displacement, KRas G12C
T6 construct: Biotinylated KRas (corresponding to amino acids 1-169, produced at Accelegan Inc.); biotin (biotinylated); purchased Accelegan Inc

KRas^G13D = molecular target: T7, KRas^G13D (Homo sapiens, UniProt P01116, G13D); experiment: KRas binding assay (TR-FRET tracer displacement), KRas G13D; conditions: for IC50: TR-FRET tracer displacement, KRas G13D
T7 construct: Biotinylated KRas (corresponding to amino acids 1-169, produced at Accelegan Inc.); biotin (biotinylated); purchased Accelegan Inc

KRas^G12S = molecular target: T8, KRas^G12S (Homo sapiens, UniProt P01116, G12S); experiment: KRas binding assay (TR-FRET tracer displacement), KRas G12S; conditions: for IC50: TR-FRET tracer displacement, KRas G12S
T8 construct: Biotinylated KRas (corresponding to amino acids 1-169, produced at Accelegan Inc.); biotin (biotinylated); purchased Accelegan Inc

[8] = test system: KRas-mediated phosphorylation of ERK in A549 cells; experiment: Inhibition of KRas-mediated phosphorylation of ERK (Cisbio HTRF pERK), A549 cells; type: cell-based; conditions: Homo sapiens; for inhibition at 0.1 µM: A549, 3 h, single point, 100 nM compound, 3 hrs; for IC50: HTRF pERK
Method in brief: as §3

KRas^WT = molecular target: T9, KRas^WT (Homo sapiens, UniProt P01116); experiment: KRas binding assay (TR-FRET tracer displacement), KRas WT; conditions: for IC50: TR-FRET tracer displacement, KRas WT
T9 construct: Biotinylated KRas (corresponding to amino acids 1-169, produced at Accelegan Inc.); biotin (biotinylated); purchased Accelegan Inc

[9] = single point, 10 nM compound, TR-FRET

T2 sequence (P01116 1-169 isoform P01116-2 G12D): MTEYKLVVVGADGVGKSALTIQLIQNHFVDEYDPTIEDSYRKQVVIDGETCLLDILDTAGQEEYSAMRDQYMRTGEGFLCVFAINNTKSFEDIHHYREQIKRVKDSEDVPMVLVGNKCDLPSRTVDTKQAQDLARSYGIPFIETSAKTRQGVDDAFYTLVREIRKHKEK
T9 sequence (P01116 1-169 isoform P01116-2): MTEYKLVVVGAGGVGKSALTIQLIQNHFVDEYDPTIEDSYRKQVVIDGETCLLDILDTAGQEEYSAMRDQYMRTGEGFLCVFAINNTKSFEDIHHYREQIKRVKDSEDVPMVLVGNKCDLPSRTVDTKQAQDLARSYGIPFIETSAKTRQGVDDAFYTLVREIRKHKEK
T6 sequence (P01116 1-169 isoform P01116-2 G12C): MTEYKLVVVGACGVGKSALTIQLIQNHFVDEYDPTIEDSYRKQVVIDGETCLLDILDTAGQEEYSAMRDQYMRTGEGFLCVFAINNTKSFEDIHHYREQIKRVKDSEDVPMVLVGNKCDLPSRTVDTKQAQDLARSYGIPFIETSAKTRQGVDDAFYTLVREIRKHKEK
T5 sequence (P01116 1-169 isoform P01116-2 G12A): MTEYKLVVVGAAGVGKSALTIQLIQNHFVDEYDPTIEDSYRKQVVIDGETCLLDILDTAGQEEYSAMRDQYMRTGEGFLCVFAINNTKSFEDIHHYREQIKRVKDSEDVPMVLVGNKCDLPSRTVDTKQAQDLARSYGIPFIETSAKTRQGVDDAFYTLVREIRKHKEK
T7 sequence (P01116 1-169 isoform P01116-2 G13D): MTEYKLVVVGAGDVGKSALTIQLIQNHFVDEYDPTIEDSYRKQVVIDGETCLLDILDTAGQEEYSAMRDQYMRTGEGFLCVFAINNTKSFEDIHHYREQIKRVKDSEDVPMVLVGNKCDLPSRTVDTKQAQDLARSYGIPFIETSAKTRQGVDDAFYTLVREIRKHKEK
T3 sequence (P01116 1-169 isoform P01116-2 G12R): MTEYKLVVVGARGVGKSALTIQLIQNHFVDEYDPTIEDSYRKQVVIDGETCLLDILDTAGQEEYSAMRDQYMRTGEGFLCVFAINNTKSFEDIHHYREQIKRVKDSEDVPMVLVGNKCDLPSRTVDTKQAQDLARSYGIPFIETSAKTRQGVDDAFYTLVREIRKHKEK
T1 sequence (P01116 1-169 isoform P01116-2 G12V): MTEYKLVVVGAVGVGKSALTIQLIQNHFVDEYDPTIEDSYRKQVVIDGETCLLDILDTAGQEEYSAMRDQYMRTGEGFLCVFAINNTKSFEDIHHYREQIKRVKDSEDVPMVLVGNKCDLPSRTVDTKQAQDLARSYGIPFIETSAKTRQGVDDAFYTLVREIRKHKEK
T4 sequence (P01116 1-169 isoform P01116-2 Q61H): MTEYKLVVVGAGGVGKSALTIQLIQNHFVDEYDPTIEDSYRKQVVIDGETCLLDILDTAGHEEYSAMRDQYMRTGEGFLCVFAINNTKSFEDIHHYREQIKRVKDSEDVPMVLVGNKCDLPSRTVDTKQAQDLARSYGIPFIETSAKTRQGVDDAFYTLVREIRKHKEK
T8 sequence (P01116 1-169 isoform P01116-2 G12S): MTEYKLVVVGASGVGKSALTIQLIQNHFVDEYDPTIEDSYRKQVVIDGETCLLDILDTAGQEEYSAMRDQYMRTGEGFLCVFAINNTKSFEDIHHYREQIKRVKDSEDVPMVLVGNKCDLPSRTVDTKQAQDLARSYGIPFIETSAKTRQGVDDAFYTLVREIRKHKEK

Compound | IC50 (KRas^G12V) | IC50 [1] | IC50 (KRas^G12D) | IC50 [2] | IC50 (KRas^G12R) | IC50 (KRas^Q61H) | inhibition at 0.1 µM [3] | IC50 (KRas^G12A) | IC50 [4] | IC50 [5] | inhibition at 0.1 µM [6] | inhibition at 0.1 µM [7] | IC50 (KRas^G12C) | IC50 (KRas^G13D) | IC50 (KRas^G12S) | IC50 (KRas^WT) | IC50 [3] | IC50 [6] | IC50 [7] | IC50 [8] | other results
Oc1cc(-c2ncc3c(N4C[C@@H]5C[C@H](C4)[C@H](O)C5)nc(OC[C@@]45CCCN4C[C@H](F)C5)nc3c2F)c2ccccc2c1 [Example 737, (1R,5R,6R)-3-(8-fluoro-2-(((2R,7aS)-2-fluorohexahydro-1H-pyrrolizin-7a-yl)methoxy)-7-(3-hydroxynaphthalen-1-yl)pyrido[4,3-d]pyrimidin-4-yl)-3-azabicyclo[3.2.1]octan-6-ol] | 5 nM | 79 nM | 13 nM | 420 nM | 7 nM | 14 nM | 27% | 10 nM | 9 nM | 7190 nM | 8% | 39% | 10 nM | 12 nM | 8 nM | 13 nM | – | – | – | – | inhibition at 0.01 µM (KRas^Q61H; [9]): 46%; inhibition at 0.01 µM (KRas^G12A; [9]): 47%; inhibition at 0.01 µM (KRas^G12C; [9]): 53%; inhibition at 0.01 µM (KRas^G13D; [9]): 53%; inhibition at 0.01 µM (KRas^G12S; [9]): 60%; inhibition at 0.1 µM [8]: 17%; inhibition at 0.01 µM (KRas^WT; [9]): 44%
O=S1(=O)NCC2(CCCN(c3nc(OCC45CCCN4CCC5)nc4c(F)c(-c5cc(O)cc(Cl)c5C5CC5)ncc34)C2)N1 (stereo not shown) [Example 745, 7-(7-(3-chloro-2-cyclopropyl-5-hydroxyphenyl)-8-fluoro-2-((hexahydro-1H-pyrrolizin-7a-yl)methoxy)pyrido[4,3-d]pyrimidin-4-yl)-2-thia-1,3,7-triazaspiro[4.5]decane 2,2-dioxide] | < 2 nM | 701 nM | < 2 nM | 867 nM | < 2 nM | < 2 nM | – | < 2 nM | 511 nM | 4280 nM | – | – | 3 nM | 3 nM | 5 nM | 4 nM | 516 nM | 185 nM | 1710 nM | 815 nM | –
O=S1(=O)NCC2(CCCN(c3nc(OC[C@@]45CCCN4C[C@H](F)C5)nc4c(F)c(-c5c6ccccc6cc6[nH]ncc56)ncc34)C2)N1 (stereo partly drawn) [Example 762, 7-(7-(1H-benzo[f]indazol-4-yl)-8-fluoro-2-(((2R,7aS)-2-fluorohexahydro-1H-pyrrolizin-7a-yl)methoxy)pyrido[4,3-d]pyrimidin-4-yl)-2-thia-1,3,7-triazaspiro[4.5]decane 2,2-dioxide] | < 2 nM | 220 nM | 2 nM | 704 nM | < 2 nM | < 2 nM | 22% | < 2 nM | 139 nM | 2550 nM | – | 36% | < 2 nM | < 2 nM | < 2 nM | < 2 nM | 327 nM | 40 nM | 134 nM | 234 nM | –
CCc1cccc2cc3[nH]ncc3c(-c3ncc4c(N5CCCC6(C5)NC(=O)NC6=O)nc(OC[C@@]56CCCN5C[C@H](F)C6)nc4c3F)c12 (stereo partly drawn) [Example 768, 7-(7-(5-ethyl-1H-benzo[f]indazol-4-yl)-8-fluoro-2-(((2R,7aS)-2-fluorohexahydro-1H-pyrrolizin-7a-yl)methoxy)pyrido[4,3-d]pyrimidin-4-yl)-1,3,7-triazaspiro[4.5]decane-2,4-dione] | < 2 nM | 275 nM | 3 nM | 434 nM | < 2 nM | < 2 nM | 23% | < 2 nM | 22 nM | > 10000 nM | 59% | 8% | < 2 nM | < 2 nM | < 2 nM | < 2 nM | 184 nM | 38 nM | 397 nM | 708 nM | inhibition at 0.1 µM [8]: 30%
CCc1cccc2cc3[nH]ncc3c(-c3ncc4c(N5CCCC6(CNC(=O)N6)C5)nc(OC[C@@]56CCCN5C[C@H](F)C6)nc4c3F)c12 (stereo partly drawn) [Example 769, 7-(7-(5-ethyl-1H-benzo[f]indazol-4-yl)-8-fluoro-2-(((2R,7aS)-2-fluorohexahydro-1H-pyrrolizin-7a-yl)methoxy)pyrido[4,3-d]pyrimidin-4-yl)-1,3,7-triazaspiro[4.5]decan-2-one] | < 2 nM | 567 nM | < 2 nM | 510 nM | < 2 nM | < 2 nM | – | < 2 nM | 226 nM | > 10000 nM | – | – | < 2 nM | < 2 nM | < 2 nM | < 2 nM | 661 nM | 88 nM | 1240 nM | 2190 nM | –
CCc1cccc2cc3[nH]ncc3c(-c3ncc4c(N5CCCn6nc(C(=O)N(C)C)cc6C5)nc(OC[C@@]56CCCN5C[C@H](F)C6)nc4c3F)c12 [Example 770, 5-(7-(5-ethyl-1H-benzo[f]indazol-4-yl)-8-fluoro-2-(((2R,7aS)-2-fluorohexahydro-1H-pyrrolizin-7a-yl)methoxy)pyrido[4,3-d]pyrimidin-4-yl)-N,N-dimethyl-5,6,7,8-tetrahydro-4H-pyrazolo[1,5-a][1,4]diazepine-2-carboxamide] | 3 nM | 654 nM | < 2 nM | 444 nM | 7 nM | 21 nM | -1% | 12 nM | 5 nM | > 10000 nM | 12% | 10% | 6 nM | 25 nM | 6 nM | 15 nM | 1720 nM | 258 nM | 3440 nM | 3330 nM | inhibition at 0.1 µM [8]: -1%
